# Measurements reported in ChEMBL document CHEMBL1201862, “PubChem BioAssay data set” (2004).
#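 Exposure lasted 48 hours, with cells grown in 96-well plates and compounds tested at five concentrations. Abbreviation: GI50, concentration required for 50% inhibition of growth.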 Activity calls are given as the source filed them. No stated cut-off is given here; in the data, active = GI50 up to about 1.1 µM and inactive = higher.
# Key:
# Assay in all cases: inhibition of tumour cell growth, NCI panel, 48 h
# COLO 205 = test system: COLO 205
# HCT-116 = test system: HCT-116
# HOP-92 = test system: HOP-92
# IGROV-1 = test system: IGROV-1
# K562 = test system: K562
# KM12 = test system: KM12
# MOLT-4 = test system: MOLT-4
# NCI-H23 = test system: NCI-H23
# RPMI-8226 = test system: RPMI-8226
# SK-OV-3 = test system: SK-OV-3
# SNB-19 = test system: SNB-19
# UACC-257 = test system: UACC-257
# NCI-H522 = test system: NCI-H522
SMILES,GI50 (COLO 205),GI50 (HCT-116),GI50 (HOP-92),GI50 (IGROV-1),GI50 (K562),GI50 (KM12),GI50 (MOLT-4),GI50 (NCI-H23),GI50 (RPMI-8226),GI50 (SK-OV-3),GI50 (SNB-19),GI50 (UACC-257),GI50 (NCI-H522)
CCCCCCc1cc(C(=O)Nc2cccc(C(F)(F)F)c2)nc(N)n1,> 100 µM (inactive),> 100 µM (inactive),> 100 µM (inactive),> 100 µM (inactive),> 100 µM (inactive),> 100 µM (inactive),> 100 µM (inactive),> 100 µM (inactive),> 100 µM (inactive),> 100 µM (inactive),> 100 µM (inactive),> 100 µM (inactive),–
C/C(=N\O)c1sc(-n2nc(-c3ccccc3)cc2-c2ccccc2)nc1C,> 10 µM (inactive),12.6 µM (inactive),> 10 µM (inactive),12.2 µM (inactive),12.6 µM (inactive),11.7 µM (inactive),11.1 µM (inactive),8.15 µM (inactive),12.2 µM (inactive),> 10 µM (inactive),12.2 µM (inactive),13.6 µM (inactive),12.1 µM (inactive)
O=C(Nc1ccccc1-c1nn(CO)c(=S)n(CO)c1=O)C(F)(F)F,> 100 µM (inactive),> 100 µM (inactive),> 100 µM (inactive),> 100 µM (inactive),> 100 µM (inactive),> 100 µM (inactive),> 100 µM (inactive),> 100 µM (inactive),–,> 100 µM (inactive),> 100 µM (inactive),–,> 100 µM (inactive)
COc1cc(CC(C(=O)O)C(=O)O)c(OC)cc1CC(C(=O)O)C(=O)O,> 100 µM (inactive),> 100 µM (inactive),> 100 µM (inactive),> 100 µM (inactive),> 100 µM (inactive),> 100 µM (inactive),> 100 µM (inactive),> 100 µM (inactive),> 100 µM (inactive),> 100 µM (inactive),> 100 µM (inactive),> 100 µM (inactive),> 100 µM (inactive)
COc1c2c(cc3nc4ccccc4nc13)CCC(C(C)(C)O)C2 (stereo not drawn),69 µM (inactive),> 100 µM (inactive),76.2 µM (inactive),> 100 µM (inactive),73.8 µM (inactive),82.6 µM (inactive),32.4 µM (inactive),56.8 µM (inactive),–,> 100 µM (inactive),> 100 µM (inactive),> 100 µM (inactive),31.8 µM (inactive)
O=C1OC(c2ccccc2)=N/C1=C/C=C/c1ccco1,> 100 µM (inactive),–,> 100 µM (inactive),> 100 µM (inactive),> 100 µM (inactive),> 100 µM (inactive),> 100 µM (inactive),> 100 µM (inactive),–,> 100 µM (inactive),> 100 µM (inactive),–,> 100 µM (inactive)
CC(C)=CC(C(O)c1ccccc1)S(=O)(=O)c1nccn1C (stereo not drawn),> 100 µM (inactive),> 100 µM (inactive),> 100 µM (inactive),> 100 µM (inactive),> 100 µM (inactive),> 100 µM (inactive),> 100 µM (inactive),> 100 µM (inactive),> 100 µM (inactive),> 100 µM (inactive),> 100 µM (inactive),> 100 µM (inactive),> 100 µM (inactive)
COc1ccc(/C=C2/CCCC/C2=N/O)cc1,> 100 µM (inactive),87.7 µM (inactive),46.1 µM (inactive),41 µM (inactive),> 10 µM (inactive),> 100 µM (inactive),42.2 µM (inactive),93.1 µM (inactive),> 100 µM (inactive),> 100 µM (inactive),> 100 µM (inactive),> 100 µM (inactive),40.5 µM (inactive)
COc1ccc(/C=c2\sc3n(c2=O)C(N)=C(C#N)C(c2ccc(OC)cc2)C=3c2nc3ccccc3[nH]2)cc1 (stereo not drawn),56.4 µM (inactive),27.2 µM (inactive),12.2 µM (inactive),44.7 µM (inactive),> 100 µM (inactive),14.2 µM (inactive),29.1 µM (inactive),5.02 µM (inactive),55.6 µM (inactive),–,> 100 µM (inactive),28.9 µM (inactive),45.7 µM (inactive)
Cc1nn(C)cc1P(=S)(c1ccccc1)c1ccccc1,48.5 µM (inactive),31.8 µM (inactive),35.2 µM (inactive),> 100 µM (inactive),20.6 µM (inactive),36.4 µM (inactive),30.3 µM (inactive),> 100 µM (inactive),28.7 µM (inactive),24.8 µM (inactive),> 100 µM (inactive),97.1 µM (inactive),–
CCOC(=O)C(=O)Nc1ccc(Cl)c(C(F)(F)F)c1,> 100 µM (inactive),> 100 µM (inactive),< 0.01 µM (active),> 100 µM (inactive),> 100 µM (inactive),–,> 100 µM (inactive),> 100 µM (inactive),> 100 µM (inactive),> 100 µM (inactive),> 100 µM (inactive),> 100 µM (inactive),> 100 µM (inactive)
